From PMC5466349 (Pharmacotherapy, 2014)

Assay: clinical
Settings: human, in vivo; for half-life: T ½; for half-life / Tmax: geometric mean (90% CI), post-ginseng

Row | half-life | Tmax | Cl/Fss geometric mean ratio (90% CI), post-ginseng/pre-ginseng | T ½ geometric mean ratio (90% CI), post-ginseng/pre-ginseng | Structure (SMILES)
1 | 7.71 h | 2.7 h |  |  | CC(C)c1nc(CN(C)C(=O)N[C@H](C(=O)N[C@@H](Cc2ccccc2)C[C@H](O)[C@H](Cc2ccccc2)NC(=O)OCc2cncs2)C(C)C)cs1 [Ritonavir, ritonavir]
2 | 10 h | 2.5 h | 1.05 (0.94–1.17) | 1.19 (0.92–1.46) | Cc1cccc(C)c1OCC(=O)N[C@@H](Cc1ccccc1)[C@@H](O)C[C@H](Cc1ccccc1)NC(=O)[C@H](C(C)C)N1CCCNC1=O [Lopinavir, lopinavir]
